The text below walks through data of patent US10913727B2, “Modulators of the integrated stress pathway” (Calico Life Sciences LLC, priority 2016, dated 2021).

pEC50: −log10 of the molar value.

In this assay the test system is HEK293T cells carrying the ATF4 luciferase reporter. As to the kind of experiment: ATF4-Luc assay, in vitro model of Vanishing Cell White Matter Disease (VWMD). Conditions: Homo sapiens, HEK-293T, 1 μg/mL tunicamycin, 7 hours, One Glo luminescence. The class given is cell-based. The method in brief:
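Stable HEK293T line with human ATF4 5′-UTR–firefly luciferase reporter treated with 1 μg/mL tunicamycin plus 200 nM compound for 7 h. Luminescence read; EC50 derived.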
As for `Cc1cccc(C(=O)NC23CC(NC(=O)COc4ccc(Cl)c(F)c4)(C2)C3)c1` [Compound 535, N-{3-[2-(4-chloro-3-fluorophenoxy)acetamido]bicyclo[1.1.1]pentan-1-yl}-3-methylbenzamide], the pEC50 – broadly, the EC50 on a negative log10 scale, so that one unit is a factor of ten – was 6.60 to 7.30.

For the compound `O=C(COc1ccc(Cl)c(F)c1)NC12CCC(NC(=O)c3ccns3)(CC1)C[C@@H]2O` [Compound 683, N-{(3S)-4-[2-(4-chloro-3-fluorophenoxy)acetamido]-3-hydroxybicyclo[2.2.2]octan-1-yl}-1,2-thiazole-5-carboxamide], the negative logarithm of the EC50 (pEC50) is more than 7.30.

For the compound `Cc1nc(C(=O)NC23CCC(NC(=O)COc4ccc(Cl)c(F)c4)(CC2)[C@@H](O)C3)n[nH]1` [Compound 673, N-{(3S)-4-[2-(4-chloro-3-fluorophenoxy)acetamido]-3-hydroxybicyclo[2.2.2]octan-1-yl}-5-methyl-1H-1,2,4-triazole-3-carboxamide], the pEC50 is 6.60 to 7.30.

`O=C(COc1ccc(Cl)c(F)c1)NC12CC(NC(=O)c3ccc(N4CCCC4)cn3)(C1)C2` [Compound 123, N-{3-[2-(4-chloro-3-fluorophenoxy)acetamido]bicyclo[1.1.1]pentan-1-yl}-5-(pyrrolidin-1-yl)pyridine-2-carboxamide]: the pEC50 is 6.00 to 6.60.

Regarding `Cc1onc(C(=O)NC23CC(NC(=O)COc4ccc(Cl)c(F)c4)(C2)C3)c1C` [Compound 901, N-{3-[2-(4-chloro-3-fluorophenoxy)acetamido]bicyclo[1.1.1]pentan-1-yl}-4,5-dimethyl-1,2-oxazole-3-carboxamide], the negative-log EC50 (pEC50) was less than 5.70.

Turning to `CC(C)Cc1cc(C(=O)NC23CC(NC(=O)COc4ccc(Cl)c(F)c4)(C2)C3)on1` [Compound 348, N-{3-[2-(4-chloro-3-fluorophenoxy)acetamido]bicyclo[1.1.1]pentan-1-yl}-3-(2-methylpropyl)-1,2-oxazole-5-carboxamide], the pEC50 was 6.60 to 7.30.

With `Cn1c(C(=O)NC23CC(NC(=O)COc4ccc(Cl)c(F)c4)(C2)C3)ccc1S(N)(=O)=O` [Compound 867, N-{3-[2-(4-chloro-3-fluorophenoxy)acetamido]bicyclo[1.1.1]pentan-1-yl}-1-methyl-5-sulfamoyl-1H-pyrrole-2-carboxamide], the pEC50 is less than 5.70.

For `O=C(COc1ccc(Cl)c(F)c1)NC12CC(NC(=O)c3ccc(C(F)F)cc3)(C1)C2` [Compound 191, N-{3-[2-(4-chloro-3-fluorophenoxy)acetamido]bicyclo[1.1.1]pentan-1-yl}-4-(difluoromethyl)benzamide], the negative logarithm of the EC50 (pEC50) is 6.60 to 7.30.

For the compound `Cc1cc(C(=O)NC23CC(NC(=O)COc4ccc(Cl)c(F)c4)(C2)C3)nn1-c1ccc(Cl)cc1` [Compound 112, N-{3-[2-(4-chloro-3-fluorophenoxy)acetamido]bicyclo[1.1.1]pentan-1-yl}-1-(4-chlorophenyl)-5-methyl-1H-pyrazole-3-carboxamide], the pEC50 was 6.00 to 6.60.

In the case of `O=C(COc1ccc(Cl)c(F)c1)NC12CCC(NC(=O)c3ccc(C(F)(F)F)o3)(CC1)CC2O` (stereo not shown) [Compound 625, N-{4-[2-(4-chloro-3-fluorophenoxy)acetamido]-3-hydroxybicyclo[2.2.2]octan-1-yl}-5-(trifluoromethyl)furan-2-carboxamide], the pEC50 is 6.00 to 6.60.

For `Cn1ccnc1C(=O)NC12CC(NC(=O)COc3ccc(Cl)c(F)c3)(C1)C2` [Compound 904, N-{3-[2-(4-chloro-3-fluorophenoxy)acetamido]bicyclo[1.1.1]pentan-1-yl}-1-methyl-1H-imidazole-2-carboxamide], the negative-log EC50 (pEC50) was less than 5.70.

`O=C(COc1ccc(Cl)c(F)c1)NC12CC(NC(=O)c3ccc4[nH]c(=O)[nH]c4n3)(C1)C2` [Compound 205, N-{3-[2-(4-chloro-3-fluorophenoxy)acetamido]bicyclo[1.1.1]pentan-1-yl}-2-oxo-2,3-dihydro-1H-imidazo[4,5-b]pyridine-5-carboxamide]: the pEC50 is less than 5.70.

For the compound `O=C(COc1ccc(Cl)c(F)c1)NC12CC(NC(=O)c3ccc4oc(=O)ccc4c3)(C1)C2` [Compound 396, N-{3-[2-(4-chloro-3-fluorophenoxy)acetamido]bicyclo[1.1.1]pentan-1-yl}-2-oxo-2H-1-benzopyran-6-carboxamide], the pEC50 is 6.00 to 6.60.

With `Cc1ccnc(C(=O)NC23CC(NC(=O)COc4ccc(Cl)c(F)c4)(C2)C3)c1` [Compound 525, N-{3-[2-(4-chloro-3-fluorophenoxy)acetamido]bicyclo[1.1.1]pentan-1-yl}-4-methylpyridine-2-carboxamide], the pEC50 is 6.00 to 6.60.

On to `CC(C)n1ccc(C(=O)NC23CC(NC(=O)COc4ccc(Cl)c(F)c4)(C2)C3)n1` [Compound 819, N-{3-[2-(4-chloro-3-fluorophenoxy)acetamido]bicyclo[1.1.1]pentan-1-yl}-1-(propan-2-yl)-1H-pyrazole-3-carboxamide], for which the negative logarithm of the EC50 (pEC50) is 6.00 to 6.60.

As to `O=C(COc1ccc(Cl)c(F)c1)NC12CC(NC(=O)c3cc4cccnc4s3)(C1)C2` [Compound 798, N-{3-[2-(4-chloro-3-fluorophenoxy)acetamido]bicyclo[1.1.1]pentan-1-yl}thieno[2,3-b]pyridine-2-carboxamide], the negative logarithm of the EC50 (pEC50) was less than 5.70.

Regarding `Cc1cccnc1C(=O)NC12CC(NC(=O)COc3ccc(Cl)c(F)c3)(C1)C2` [Compound 368, N-{3-[2-(4-chloro-3-fluorophenoxy)acetamido]bicyclo[1.1.1]pentan-1-yl}-3-methylpyridine-2-carboxamide], the negative-log EC50 (pEC50) is 6.00 to 6.60.

For `O=C(COc1ccc(Cl)c(F)c1)NC12CCC(NC(=O)c3csc(C(F)(F)F)n3)(CC1)CC2O` (stereo not shown) [Compound 466, N-{4-[2-(4-chloro-3-fluorophenoxy)acetamido]-3-hydroxybicyclo[2.2.2]octan-1-yl}-2-(trifluoromethyl)-1,3-thiazole-4-carboxamide], the pEC50 was more than 7.30.

Consider `CCc1ccc(C(=O)NC23CCC(NC(=O)COc4ccc(Cl)c(F)c4)(CC2)[C@@H](O)C3)nc1` [Compound 754, N-{(3S)-4-[2-(4-chloro-3-fluorophenoxy)acetamido]-3-hydroxybicyclo[2.2.2]octan-1-yl}-5-ethylpyridine-2-carboxamide], for which the pEC50 was more than 7.30.

With `Cc1nn(C)cc1C(=O)NC12CC(NC(=O)COc3ccc(Cl)c(F)c3)(C1)C2` [Compound 846, N-{3-[2-(4-chloro-3-fluorophenoxy)acetamido]bicyclo[1.1.1]pentan-1-yl}-1,3-dimethyl-1H-pyrazole-4-carboxamide], the pEC50 was 5.70 to 6.00.

As for `Cc1noc(C)c1C(=O)NC12CC(NC(=O)COc3ccc(Cl)c(F)c3)(C1)C2` [Compound 312, N-{3-[2-(4-chloro-3-fluorophenoxy)acetamido]bicyclo[1.1.1]pentan-1-yl}-3,5-dimethyl-1,2-oxazole-4-carboxamide], the pEC50 is less than 5.70.

Regarding `CCn1ccc(C(=O)NC23CC(NC(=O)COc4ccc(Cl)c(F)c4)(C2)C3)cc1=O` [Compound 405, N-{3-[2-(4-chloro-3-fluorophenoxy)acetamido]bicyclo[1.1.1]pentan-1-yl}-1-ethyl-2-oxo-1,2-dihydropyridine-4-carboxamide], the negative-log EC50 (pEC50) is less than 5.70.

With `CCSc1cncc(C(=O)NC23CC(NC(=O)COc4ccc(Cl)c(F)c4)(C2)C3)n1` [Compound 898, N-{3-[2-(4-chloro-3-fluorophenoxy)acetamido]bicyclo[1.1.1]pentan-1-yl}-6-(ethylsulfanyl)pyrazine-2-carboxamide], the negative logarithm of the EC50 (pEC50) is 6.60 to 7.30.

Turning to `Cc1cc(C(=O)NC23CCC(NC(=O)COc4ccc(Cl)c(F)c4)(C2)C3)sn1` [Compound 710, N-{4-[2-(4-chloro-3-fluorophenoxy)acetamido]bicyclo[2.1.1]hexan-1-yl}-3-methyl-1,2-thiazole-5-carboxamide], the negative logarithm of the EC50 (pEC50) was 6.00 to 6.60.

Turning to `N#Cc1ccc(C(=O)NC23CCC(NC(=O)COc4ccc(Cl)c(F)c4)(CC2)C(O)C3)nc1` (stereo not shown) [Compound 937, N-{4-[2-(4-chloro-3-fluorophenoxy)acetamido]-3-hydroxybicyclo[2.2.2]octan-1-yl}-5-cyanopyridine-2-carboxamide], the pEC50 was more than 7.30.

In the case of `Cc1cc(C(=O)NC23CCC(NC(=O)COc4ccc(F)c(F)c4)(CC2)C(O)C3)on1` (stereo not shown) [Compound 462, N-{4-[2-(3,4-difluorophenoxy)acetamido]-3-hydroxybicyclo[2.2.2]octan-1-yl}-3-methyl-1,2-oxazole-5-carboxamide], the pEC50 was 6.00 to 6.60.

With `O=C(COc1ccc(Cl)c(F)c1)NC12CC(NC(=O)c3cnc(C4=CCOCC4)o3)(C1)C2` [Compound 138, N-{3-[2-(4-chloro-3-fluorophenoxy)acetamido]bicyclo[1.1.1]pentan-1-yl}-2-(3,6-dihydro-2H-pyran-4-yl)-1,3-oxazole-5-carboxamide], the pEC50 was 6.60 to 7.30.

With `O=C(COc1ccc(Cl)c(F)c1)NC12CC(NC(=O)c3cnc(C4=CCC(O)CC4)o3)(C1)C2` (stereo not shown) [Compound 163, N-{3-[2-(4-chloro-3-fluorophenoxy)acetamido]bicyclo[1.1.1]pentan-1-yl}-2-(4-hydroxycyclohex-1-en-1-yl)-1,3-oxazole-5-carboxamide], the pEC50 is 5.70 to 6.00.

As to `COc1cc(C(=O)NC23CC(NC(=O)COc4ccc(Cl)c(Cl)c4)(C2)C3)on1` [Compound 709, N-{3-[2-(3,4-dichlorophenoxy)acetamido]bicyclo[1.1.1]pentan-1-yl}-3-methoxy-1,2-oxazole-5-carboxamide], the pEC50 is 6.60 to 7.30.

In the case of `Cc1ncc(-c2ncc(C(=O)NC34CC(NC(=O)COc5ccc(Cl)c(F)c5)(C3)C4)o2)cn1` [Compound 109, N-{3-[2-(4-chloro-3-fluorophenoxy)acetamido]bicyclo[1.1.1]pentan-1-yl}-2-(2-methylpyrimidin-5-yl)-1,3-oxazole-5-carboxamide], the negative-log EC50 (pEC50) is 6.00 to 6.60.

Consider `O=C(COc1ccc(C(F)(F)F)nc1)NC12CC(NC(=O)c3cnc(C(F)F)cn3)(C1)C2` [Compound 455, 5-(difluoromethyl)-N-[3-(2-{[6-(trifluoromethyl)pyridin-3-yl]oxy}acetamido)bicyclo[1.1.1]pentan-1-yl]pyrazine-2-carboxamide], for which the negative logarithm of the EC50 (pEC50) is less than 5.70.
